Data: patent US20250339531A1, “DUX4 POLYPEPTIDES AND NUCLEIC ACIDS FOR TREATING INFLAMMATORY AND AUTOIMMUNE CONDITIONS” (Fred Hutchinson Cancer Center, priority 2021, published 2025)

Tested on: proteins that co-immunoprecipitated with DUX4-CTD constructs expressed in MB135 myoblasts
Test: LC-MS of proteins co-immunoprecipitated with DUX4-CTD (Table 1) and western validation
Assay type: binding, human
Design: key to 4. mL1dL2 + Dox + IFNG / 4. + IFNG mix / 4. longCTD + Dox + IFNG / 3. + IFNg + Dox longCTD / 3. + Dox longCTD / 3. + IFNG longCTD: peptide-spectrum matches (PSMs) per protein
Conditions: for 4. longCTD + Dox + IFNG: LC-MS counts of the listed protein co-immunoprecipitated with DUX4-CTD bait longCTD; for 3. + Dox longCTD / 3. + IFNg + Dox longCTD / 3. + IFNG longCTD: bait longCTD; for 3. + Dox longCTD: experiment 3, Dox only; for 3. + IFNg + Dox longCTD: experiment 3, IFNg + Dox; for SUM of PSMS: sum over all samples; for 3. + IFNG longCTD: experiment 3, IFNG only, no doxycycline (bait at background level)
Excerpt: As an unbiased method to identify proteins that interact with the C-terminal region of DUX4, liquid chromatography mass spectroscopy (LC-MS) was used to identify proteins that co-immunoprecipitated with DUX4-CTD constructs expressed in MB135 myoblasts. In the first experiment, MB135iDUX4-CTD cells were used, either untreated, treated with doxycycline alone, or with both doxycycline and IFNG. In the second experiment, MB135iDUX4-CTD and MB135iDUX4mL1dL2 cells were used, both treated with doxycycline and IFNG, compared to these two cell lines untreated and combined as a control. Proteins with a minimum of 2 peptide spectrum matches (PSMs) in at least one sample that were identified in both experiments were assigned to one of ten categories (see Methods) to separate candidate interactors from other categories that might be co-purified because of obligate interactions (e.g., proteasome or ribosome) or might be less likely to be physiologically relevant (e.g., cytoskeletal proteins). Candidate interactors were then ranked based on the total PSMs for that protein across all samples.
Centrifugation at 2500 rcf at 4° C. for 5 min pelleted the nuclei, supernatant was discarded, and nuclei resuspended in 1 mL IP buffer pH 7.4 (25 mM Tris-HCl pH 7.5, 175 mM NaCl, 1 mM EDTA, 0.2% NP-40, 5% glycerol) and incubated for 1 hour at 4° C. with rotation then spun at 21000 rcf for 10 minutes at 4° C. to pellet insoluble debris. Protein concentration was determined using the Pierce BCA Protein Assay Kit (ThermoFisher, 23225). An equivalent amount of protein per sample was pre-cleared with Dynabeads Protein G (Invitrogen) bound to mouse IgG (Abcam #131368) for 1 hour at 4° C. with rotation. FLAG-tagged constructs were then immunoprecipitated with Dynabeads Protein G beads coupled to mouse anti-FLAG M2 mAb (Sigma F3165) for 3 hours at 4° C. with rotation. Beads were washed 3× with 1 mL IP buffer and eluted by adding 2× NuPage LDS Sample Buffer (Thermo Fisher, diluted from 4× with PBS) to the beads and heating for 10 minutes at 70° C.
For LC-MS, anti-FLAG immunoprecipitation was performed with beads cross-linked to the anti-FLAG antibody and the proteins competitively eluted with FLAG peptide. Eluted protein samples were electrophoresed into a NuPage 4-12% Bis-Tris gel, excised, and processed by the Fred Hutchinson Cancer Research Center Proteomics Core. Samples were reduced, alkylated, digested with trypsin, desalted, and run on the Orbitrap Eclipse Tribid Mass Spectrometer (Thermo Fisher). Proteomics data were analyzed using Proteome Discoverer 2.4 against a Uniprot human database that included common contaminants using Sequest HT and Percolator for scoring. […] Proteins that were identified in at least one sample from both independent experiments with at least 2 PSMs in one sample were assigned to one of ten categories: 1, candidates; 2, cytoskeletal associated; 3, cytoskeletal; 4, ribosome/translation associated; 5, proteasome associated; 6, membrane or extracellular; ER, golgi, or vesicle associated; 8, lipid metabolism; 9, chaperones; 10, nuclear import or nuclear membrane associated. The proteins in category 1 were further investigated for interactions with DUX4.

[1] = LC-MS value per protein co-immunoprecipitated with DUX4-CTD construct mL1dL2 in MB135 myoblasts, + Dox + IFNG, kind of count not given
[2] = LC-MS counts of the listed protein co-immunoprecipitated with DUX4-CTD bait mL1dL2, experiment 4, Dox + IFNG
[3] = LC-MS counts of the listed protein in anti-FLAG co-IP, experiment 4, IFNG, no doxycycline, mix, MB135 myoblasts
[4] = LC-MS value per protein co-immunoprecipitated from MB135 myoblasts, + IFNG mix sample (no Dox), kind of count not given

Row | Substance | 4. longCTD + Dox + IFNG (experiment 4, Dox + IFNG) | 3. + Dox longCTD | 3. + IFNg + Dox longCTD | SUM of PSMS | 4. mL1dL2 + Dox + IFNG [1] | further results
1 | P47929 | 6 | 1 | 1 | 8 | – | –
2 | PTBP1 | – | – | – | – | 1 | –
3 | P78527 | 2 | 3 | 18 | 39 | – | –
4 | P02751 | – | 17 | 48 | 68 | – | –
5 | Q15208 | 6 | – | – | 11 | – | 3. + IFNG longCTD: 1
6 | P07900 | 10 | – | 9 | 30 | – | 4. mL1dL2 + Dox + IFNG [2]: 5; 4. + IFNG mix [3]: 6
7 | P38646 | 7 | 1 | 10 | 30 | – | 4. mL1dL2 + Dox + IFNG [2]: 11; 4. + IFNG mix [3]: 1
8 | O60684 | 1 | 4 | 4 | 15 | – | 4. mL1dL2 + Dox + IFNG [2]: 6
9 | G3BP1 | – | – | – | – | 1 | 4. + IFNG mix [4]: 1
10 | DES | – | – | – | – | 10 | 4. + IFNG mix [4]: 24
11 | P07237 | 14 | 3 | 5 | 51 | – | –
12 | P68371 | 100 | 42 | 70 | 283 | – | 3. + IFNG longCTD: 11
13 | MYH9 | – | – | – | – | 1 | 4. + IFNG mix [4]: 10
14 | P78371 | 4 | – | 1 | 7 | – | 4. mL1dL2 + Dox + IFNG [2]: 2
15 | NPM1 | – | – | – | – | 4 | 4. + IFNG mix [4]: 2
16 | TUBB4B | – | – | – | – | 47 | 4. + IFNG mix [4]: 13
17 | FLNA | – | – | – | – | 4 | 4. + IFNG mix [4]: 3
18 | P08123 | – | 1 | – | 4 | – | 3. + IFNG longCTD: 1
19 | P50991 | 1 | – | 1 | 5 | – | 4. mL1dL2 + Dox + IFNG [2]: 3
20 | HNRNPU | – | – | – | – | 1 | –
21 | P68363 | – | 22 | – | 55 | – | –
22 | PSME2 | – | – | – | – | 4 | –
23 | P21333 | 10 | 1 | 12 | 30 | – | –
24 | PSMA6 | – | – | – | – | 4 | –
25 | P08238 | 10 | 2 | 14 | 32 | – | 4. mL1dL2 + Dox + IFNG [2]: 6
26 | CLTC | – | – | – | – | 8 | –

Row | Substance | 4. longCTD + Dox + IFNG (experiment 4, Dox + IFNG) | 3. + Dox longCTD | 3. + IFNg + Dox longCTD | SUM of PSMS | 4. mL1dL2 + Dox + IFNG [1] | further results
27 | Q9ULV4 | 7 | 4 | 13 | 24 | – | –
28 | Q13200 | 4 | – | 3 | 11 | – | –
29 | P4HB | – | – | – | – | 20 | 4. + IFNG mix [4]: 9
30 | Q14315 | 12 | 2 | 7 | 24 | – | –
31 | PRKDC | – | – | – | – | 5 | 4. + IFNG mix [4]: 11
32 | P11021 | 44 | 22 | 62 | 209 | – | 4. mL1dL2 + Dox + IFNG [2]: 49; 4. + IFNG mix [3]: 31; 3. + IFNG longCTD: 1
33 | P63010 | – | 8 | 26 | 35 | – | –
34 | Q93008 | 3 | – | 5 | 15 | – | –
35 | PPP2R1A | – | – | – | – | 5 | –
36 | P48681 | 2 | 4 | 4 | 18 | – | 3. + IFNG longCTD: 1
37 | P06748 | – | 2 | 8 | 16 | – | –
38 | P49368 | 2 | – | 1 | 7 | – | 4. mL1dL2 + Dox + IFNG [2]: 4
39 | PLEC | – | – | – | – | 16 | 4. + IFNG mix [4]: 3
40 | FN1 | – | – | – | – | – | 4. + IFNG mix [4]: 3
41 | P61978 | 6 | 2 | 8 | 31 | – | –
42 | P40763 | – | 1 | 3 | 5 | – | –
43 | P11940 | 3 | – | 13 | 21 | – | –
44 | VIM | – | – | – | – | 43 | 4. + IFNG mix [4]: 66
45 | Q9Y490 | 3 | 1 | 1 | 5 | – | –
46 | EEF1G | – | – | – | – | 1 | –
47 | Q00839 | – | 4 | 9 | 14 | – | –
48 | FLNC | – | – | – | – | 2 | 4. + IFNG mix [4]: 1
49 | P10644 | 3 | – | 4 | 11 | – | 4. mL1dL2 + Dox + IFNG [2]: 4
50 | P26641 | 1 | 3 | 6 | 11 | – | –
51 | TUBA1B | – | – | – | – | 24 | 4. + IFNG mix [4]: 9
52 | AHNAK | – | – | – | – | – | 4. + IFNG mix [4]: 1
